Test results from ChEMBL document CHEMBL1201862, “PubChem BioAssay data set” (2004).
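The compound was tested at five concentrations on cells cultured in 96-well plates, with a 48-hour exposure period. Here, GI50 denotes the concentration required for 50% inhibition of growth.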 Activity calls are given as the source filed them. Cut-off read from the data, not from the text of the source: active = GI50 up to about 1.1 µM and inactive = higher.

Experiments:
Assay in all cases: NCI anticancer screen, dose series, 48 h
[1] = test system: A549
[2] = test system: MDA-MB-231
[3] = test system: SN12C
[4] = test system: NCI/ADR-RES
[5] = test system: UO-31
[6] = test system: HCT-15
[7] = test system: 786-0
[8] = test system: SF-539
[9] = test system: MCF7
[10] = test system: SF-268
[11] = test system: HT-29
[12] = test system: T47D
[13] = test system: PC-3
[14] = test system: SNB-75
[15] = test system: NCI-H226
[16] = test system: U-251
[17] = test system: DU-145
[18] = test system: CAKI-1
[19] = test system: Malme-3M
[20] = test system: SR

SMILES	GI50 [1]	GI50 [2]	GI50 [3]	GI50 [4]	GI50 [5]	GI50 [6] [µM]	GI50 [7]	GI50 [8]	GI50 [9]	GI50 [10]	GI50 [11]	GI50 [12]	GI50 [13]	GI50 [14]	GI50 [15]	GI50 [16]	GI50 [17]	GI50 [18]	GI50 [19]	GI50 [20]
COc1ccc(/C=C2\N=C(SC)N(C)C2=O)cc1	63.2 µM (inactive)	41.2 µM (inactive)	71.6 µM (inactive)	86.9 µM (inactive)	27 µM (inactive)	64.3	68.7 µM (inactive)	92 µM (inactive)	49.4 µM (inactive)	28.1 µM (inactive)	46.1 µM (inactive)	42.6 µM (inactive)	40.9 µM (inactive)	41.6 µM (inactive)	47.3 µM (inactive)	89.7 µM (inactive)	> 100 µM (inactive)	–	–	–
CCN(CC)CCn1ncc2c(N)ncnc21	> 100 µM (inactive)	> 100 µM (inactive)	> 100 µM (inactive)	> 100 µM (inactive)	> 100 µM (inactive)	> 100	> 100 µM (inactive)	–	> 100 µM (inactive)	> 100 µM (inactive)	> 100 µM (inactive)	> 100 µM (inactive)	> 100 µM (inactive)	–	> 100 µM (inactive)	> 100 µM (inactive)	> 100 µM (inactive)	> 100 µM (inactive)	> 100 µM (inactive)	–
Cc1ccc2ccc(O)cc2c1	72.4 µM (inactive)	30 µM (inactive)	94.6 µM (inactive)	24.8 µM (inactive)	23 µM (inactive)	35.6	76.2 µM (inactive)	38.4 µM (inactive)	31.2 µM (inactive)	31.8 µM (inactive)	53.6 µM (inactive)	35.3 µM (inactive)	21.1 µM (inactive)	48.9 µM (inactive)	39.3 µM (inactive)	23.1 µM (inactive)	91.6 µM (inactive)	38.1 µM (inactive)	48.2 µM (inactive)	–
CCOC(=O)Nc1nn[nH]c1Cl	> 100 µM (inactive)	> 100 µM (inactive)	> 100 µM (inactive)	> 100 µM (inactive)	> 100 µM (inactive)	> 100	> 100 µM (inactive)	> 100 µM (inactive)	> 100 µM (inactive)	> 100 µM (inactive)	> 100 µM (inactive)	> 100 µM (inactive)	> 100 µM (inactive)	> 100 µM (inactive)	> 100 µM (inactive)	> 100 µM (inactive)	> 100 µM (inactive)	> 100 µM (inactive)	> 100 µM (inactive)	–
CC(NNC(=O)c1ccc[n+]([BH2-]C#N)c1)c1ccccc1 (stereo not given)	–	> 100 µM (inactive)	> 100 µM (inactive)	> 100 µM (inactive)	> 100 µM (inactive)	> 100	> 100 µM (inactive)	> 100 µM (inactive)	> 100 µM (inactive)	> 100 µM (inactive)	> 100 µM (inactive)	> 100 µM (inactive)	> 100 µM (inactive)	> 100 µM (inactive)	> 100 µM (inactive)	> 100 µM (inactive)	> 100 µM (inactive)	> 100 µM (inactive)	> 100 µM (inactive)	–
NS(=O)(=O)c1nnc(NS(=O)(=O)c2ccccc2C(=O)O)s1	> 100 µM (inactive)	> 100 µM (inactive)	> 100 µM (inactive)	> 100 µM (inactive)	> 100 µM (inactive)	> 100	> 100 µM (inactive)	–	> 100 µM (inactive)	> 100 µM (inactive)	> 100 µM (inactive)	> 100 µM (inactive)	–	–	> 100 µM (inactive)	> 100 µM (inactive)	> 100 µM (inactive)	> 100 µM (inactive)	> 100 µM (inactive)	> 100 µM (inactive)
Clc1nc(NCCc2ccccc2)c2ncn(-c3ccccc3)c2n1	26.4 µM (inactive)	21.8 µM (inactive)	27.5 µM (inactive)	20.6 µM (inactive)	12.9 µM (inactive)	25.5	16.9 µM (inactive)	–	24.9 µM (inactive)	36.5 µM (inactive)	16.2 µM (inactive)	23.4 µM (inactive)	16.1 µM (inactive)	18 µM (inactive)	24.1 µM (inactive)	16.2 µM (inactive)	25.2 µM (inactive)	7.83 µM (inactive)	21.1 µM (inactive)	–
COc1ccc2c(c1)C(N)CC2=O (stereo not given)	19.1 µM (inactive)	> 100 µM (inactive)	> 100 µM (inactive)	> 100 µM (inactive)	> 100 µM (inactive)	> 100	> 100 µM (inactive)	> 100 µM (inactive)	> 100 µM (inactive)	> 100 µM (inactive)	> 100 µM (inactive)	> 100 µM (inactive)	18.9 µM (inactive)	> 100 µM (inactive)	> 100 µM (inactive)	> 100 µM (inactive)	> 100 µM (inactive)	> 100 µM (inactive)	–	–
O=c1[nH]nc(Cc2ccccc2)n1/N=C/c1cccs1	> 100 µM (inactive)	23.4 µM (inactive)	> 100 µM (inactive)	> 100 µM (inactive)	> 100 µM (inactive)	> 100	> 100 µM (inactive)	> 100 µM (inactive)	> 100 µM (inactive)	> 100 µM (inactive)	> 100 µM (inactive)	> 100 µM (inactive)	> 100 µM (inactive)	> 100 µM (inactive)	> 100 µM (inactive)	48 µM (inactive)	> 100 µM (inactive)	> 100 µM (inactive)	> 100 µM (inactive)	–
C[C@]12CCC(=O)C=C1CC[C@@H]1C2CC[C@]2(C)c3nn(-c4ccc(F)cc4)nc3CC12 (stereo not given in full)	> 100 µM (inactive)	> 100 µM (inactive)	> 100 µM (inactive)	–	> 100 µM (inactive)	–	50.4 µM (inactive)	> 100 µM (inactive)	> 100 µM (inactive)	> 100 µM (inactive)	> 100 µM (inactive)	> 100 µM (inactive)	> 100 µM (inactive)	38.1 µM (inactive)	> 100 µM (inactive)	53.2 µM (inactive)	> 100 µM (inactive)	> 100 µM (inactive)	> 100 µM (inactive)	> 100 µM (inactive)
O=C(Cn1c2ccc(Br)cc2c2nc3ccccc3nc21)NC1CCCCC1	> 100 µM (inactive)	> 100 µM (inactive)	> 100 µM (inactive)	> 100 µM (inactive)	> 100 µM (inactive)	> 100	> 100 µM (inactive)	–	–	> 100 µM (inactive)	> 100 µM (inactive)	60.4 µM (inactive)	> 100 µM (inactive)	36.1 µM (inactive)	> 100 µM (inactive)	> 100 µM (inactive)	> 100 µM (inactive)	> 100 µM (inactive)	> 100 µM (inactive)	–
Cc1ccccc1NC(=O)C(=O)Cc1cnc2ccccc2n1	> 100 µM (inactive)	> 100 µM (inactive)	> 100 µM (inactive)	> 100 µM (inactive)	> 100 µM (inactive)	> 100	> 100 µM (inactive)	> 100 µM (inactive)	> 100 µM (inactive)	> 100 µM (inactive)	> 100 µM (inactive)	> 100 µM (inactive)	> 100 µM (inactive)	–	> 100 µM (inactive)	> 100 µM (inactive)	> 100 µM (inactive)	> 100 µM (inactive)	> 100 µM (inactive)	–
